Test results published in patent US20250319292A1, “MICRONEEDLES AND METHODS FOR TREATING THE SKIN” (THE BRIGHAM AND WOMEN'S HOSPITAL, INC., priority 2021, published 2025).

Assays:
THP-1 cells = test: Cytotoxicity studies of digestion media (TCEP); assay type: cell-based; conditions: TCEP 0.1 mM to 100 mM, 10 minutes
Procedure: Human monocyte THP-1 cells (ATTC) were maintained in RPMI 1640 supplemented with 10% FBS, 2 mM L-glutamine, 25 mM HEPES, 100 μg/mL Normocin™ (InvivoGen) and 100 U/mL penicillin and 100 μg/mL streptomycin. Cell lines were maintained in a humidified incubator at 37° C., 5% CO2.
THP-1 cells were incubated with different concentrations of digestion media (TCEP solution in supplemented media), ranging from 0.1 mM to 100 mM, for 10 minutes. Thereafter, digestion media was removed, and cells were stained using the LIVE/DEAD™ fixable Violet Dead Cell Stain Kit (Thermo Fisher Scientific, USA) following the manufacturer's guidelines. Dead cells were analyzed by flow cytometry using a BD LSRFortessa™ flow cytometer.

Tregs = test: CCL22-dependent trans-well migration assay; assay type: cell-based, C57BL/6 mice; conditions: 0, 10 and 100 ng/ml, 3 hours, CD3+ T cells
Procedure: Recruitment of Tregs as a function of CCL22 was assessed in a 24-well plate containing a 5 μm-pore polycarbonate Transwell® filter system (Costar Transwell® permeable support #3421). MNs loaded with incremental amounts of CCL22 ([…] and 100 ng) or equivalent dose of soluble CCL22 were added in the receiver wells and incubated at 37° C. for 1 hour. 5×10^5 CD3^+ T cells were magnetically isolated from C57BL/6 mice using mouse T cell isolation kit (EasySep™, #19851) and resuspended in full culture media and added to the top wells. Cells were then incubated at 37° C. and 5% CO2 for 3 hours. Cells in the receiver well were then harvested and stained with Fixed viability dye, anti-CD3, CD4, CD25, and Foxp3 antibodies and analyzed by flow cytometry.
Next, the biological activity of chemokines when loaded in the MNs was examined. Specifically, the ability of CCL22 to mediate Tregs recruitment when delivered using the MN platform through a trans-well migration assay was studied. Briefly, ranging concentrations of CCL22, either MN-doped or soluble, were incubated with CD3^+ T cells, and the number of migrated Tregs was analyzed after 3 hours of incubation by flow cytometry. […] This can stem from the maintenance of a higher gradient of CCL22 when released from the MNs compared to soluble CCL22 (FIG. 3C).

For O=C(O)CCP(CCC(=O)O)CCC(=O)O [TCEP, tris (2-carboxyethyl) phosphine], the cell viability (THP-1 cells) was “highly biocompatible and did not affect cell viability”.

B1: soluble CCL22: C-C motif chemokine 22 added in solution, from PeproTech (protein, UniProt O00626 25-93, looked up)
C-C motif chemokine 22: GPYGANMEDSVCCRDYVRYRLPLRVVKHFYWTSDSCPRPGVVLLTFRDKEICADPRVPWVKMILNKLSQ
In the case of B1, the “Tregs migration as a function of CCL22 concentration” value (Tregs) is reported as “dose-dependent increase of Tregs migration”.
